From patent US8986689B2, “Compositions and methods for brain delivery of analgesic peptides” (National Research Council of Canada, priority 2010, dated 2015)
Non-standard residues stand in square brackets, D forms with d. No end group written: not given here.

Legend:
male CD-1 mice = assay: Tail flick assay (acute pain); type: in vivo, mouse; details: for Analgesic effect after intra-cerebroventricular injection: 15 min and 30 min after injection
male Wistar rats = assay: Paw flick assay (Hargreaves method, CFA chronic inflammatory pain); type: in vivo, rat; details: for Analgesic effect after intravenous injection: tail vein, three injections at 0, 1 and 2 h, Dalargin-cys 0.34 mg/kg, FC5 and EG2-Dalargin 7 mg/kg
Experimental: (§1) Chronic inflammatory pain was induced in 4-6 week old male Wistar rats, by a intra-plantar (i.pl.) injection (100 μl with a 30-gauge needle) of complete Freund's adjuvant in sterile water in a ratio of 1:1 in the right hind paw under brief isoflurane anesthesia (3%). Three days after CFA injection the putative antinociceptive effect of different compounds was quantified by measuring latencies of withdrawal of both hind limb paws (ipsilateral and contralateral to CFA injection) in response to radiant heat using digitalized plantar Analgesia Meter for paw stimulation (IITC Model #336TG Life Science, Inc.). A rapid paw withdrawal on the side of CFA injection (compared to the contralateral non-injected paw) was indicative of inflammatory pain. During the training period (before experiments), the light-intensity lamp was adjusted to elicit baseline paw withdrawal latencies between 17 to 20 s (in rats). […] Results were analyzed as temporal courses of paw withdrawal latency (sec) versus time (min or hrs) and expressed as % of maximum possible effect (% MPE) as described in Example 5. A subcutaneous injection of morphine 10 mg/kg served as a positive control.
For intra-cerebroventricular injections in rats, a longitudinal incision was made in the scalp to identify the bregma; then animals received a unilateral 5 μl intra-cerebroventricular injection of either FC5-Dalargin or Dalargin alone approximately 0.8 mm anterioposterior (AP) level of bregma, 1.5 mm with respect to the midline and 3.5 mm ventral from the skull surface. Injections were made using a Hamilton syringe equipped with a 25-gauge needle. Injection depth was controlled by a plug on the needle to prevent more than 3.5 mm penetration beyond the skull surface.
In contrast, FC5-Dalargin induced cumulative analgesia after each i.v. dosing, reaching 100% MPE 45 min-1 hour after the third injection and gradually ‘washing-out’ over a subsequent three hours (FIG. 12, closed triangles), similar to what was observed after intra-cerebroventricular injections of Dalargin-cys and FC5-Dalargin (FIGS. 10 and 11). If Fc5-Dalargin injection was given 4th time at 3 h (FIG. 12, open polygons), the ‘wash-out’ (i.e., disappearance of analgesic effect) was somewhat extended. […] When Dalargin is functionalized with the blood-brain barrier ‘carrier’ single domain antibody, FC5, Dalargin becomes efficacious in inducing analgesia in chronic pain because FC5 enables its delivery across the blood brain barrier to the sites of its pharmacological action, central opioid receptors.
as §1, with “5-7 weeks” for “4-6 week”, “5.” for “5. A subcutaneous injection of morphine 10 mg/kg served as a positive control.”
Rats received 5 μl intra-cerebroventricular injections of NPY (1 μg) as described in Example 6.
NPY was then injected intravenously in the tail vein in two injections, each containing 2.02 mg/kg of NPY, 1 h apart from each other as described in Example 6. […]

opioid receptors = opioid receptors (Rattus norvegicus, UniProt P33535); assay: Opioid receptor binding competition assay against 3H-DAMGO in isolated rat brain membranes; details: 30 nM 3H-DAMGO, capillary-depleted rat brain membranes
Sequence of opioid receptors (P33535 whole entry): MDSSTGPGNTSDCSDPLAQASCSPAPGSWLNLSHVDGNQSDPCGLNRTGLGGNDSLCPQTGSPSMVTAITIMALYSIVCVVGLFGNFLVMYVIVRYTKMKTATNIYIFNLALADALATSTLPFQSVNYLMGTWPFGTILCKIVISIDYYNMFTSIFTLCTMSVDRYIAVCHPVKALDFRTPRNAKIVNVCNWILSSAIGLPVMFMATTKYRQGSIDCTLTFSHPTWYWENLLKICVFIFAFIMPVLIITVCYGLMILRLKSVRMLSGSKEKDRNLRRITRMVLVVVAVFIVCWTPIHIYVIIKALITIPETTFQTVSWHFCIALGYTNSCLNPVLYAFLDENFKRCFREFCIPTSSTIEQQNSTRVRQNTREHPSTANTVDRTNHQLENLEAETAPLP
Experimental: The homogenate was centrifuged at 5800×g (10,000 rpm; Beckman L8-70 Ultracentrifuge, Rotor: SW 40) for 20 min at 4 degrees. The upper parenchyma layer was then collected and centrifuged under the same conditions. The upper parenchyma layer was again collected, and 1 Volume of 50 mM Tris-buffer pH 7.4 containing [2×] of protease inhibitor was added to the collected parenchyma. The mixture was homogenized using a motorized pestle. The homogenate was centrifuged at 46,000×g for 15 minutes at 4° C. The supernatant was removed and the pellet re-suspended in 1 Volume Tris-buffer pH 7.4 containing [2×] of protease inhibitor. The re-suspended pellet was incubated at 37° C. for 15 minutes with agitation in a 50 ml conical tube to dissociate endogenous opioids from receptors. After incubation, the homogenate was centrifuged at 46,000×g for 15 minutes at 4° C. The supernatant was again removed and the pellet re-suspended in 1 to 1.5 Volume Tris-buffer pH 7.4 containing [1×] of protease inhibitor. The membrane preparation was aliquoted into 1.5 ml tubes in 1 ml samples and stored at −80° C.
Opioid Receptor binding assay used a μ opioid receptor agonist, ^3H-DAMGO, to bind to opioid receptors present in the rat brain membrane preparation. Displacement studies were done with unlabelled ligands, Dalargin, and Dalargin-FC5. Briefly, diluted reagents were prepared using 50 mM Tris-buffer pH7.4, as follows: • i. […] 500 nM FC5-Dal: 16.67 μl 30 μM FC5-Dal and 1 ml Tris-buffer; • v.
Tris-buffer was added to each well, followed by a range of Dalargin concentrations, followed by ^3H-DAMGO. The reaction mixture was left at RT with gentle orbital shaking for 1.5 hr. A scintillation cocktail was then added and radioactive counts were measured using beta scintillation counter.
Specific activity for ^3H-DAMGO was 56.8 Ci/mmol. Percentage specific bound at each concentration of unlabelled competitor was calculated using the formula: % specific bound=Bound/Total bound*100.

[1] = tested on: Immortalized Adult Rat brain endothelial cells (ARBEC); assay: Transport across in vitro blood brain barrier model; details: Cy5.5-labelled, 10 μg/ml added to apical chamber, ARBEC monolayer
Experimental: FC5 and FC5-Dalargin were labelled by covalent conjugation to Cy5.5 N-hydroxysuccinimide (NHS) ester using methods recommended by the manufacturer (GE Healthcare). Cy5.5 NHS was bound to FC5 through a thioether covalent bond.
Immortalized Adult Rat brain endothelial cells (ARBEC) were used as the in vitro blood brain barrier model. ARBEC (80,000 cells/membrane) were seeded on a 0.5% gelatine-coated Falcon tissue culture inserts (pore size-1 μm; surface area 0.83 cm^2) in 1 ml of growth medium. The bottom chamber of the insert assembly contained 2 ml of growth medium supplemented with the fetal human astrocyte-conditioned medium in a 1:1 (v/v) ratio.
Transport studies were performed 7 days post-seeding. Filter inserts were rinsed with transport buffer (PBS containing 5 mM glucose, 5 mM MgCl2, 10 mM HEPES, 0.05% BSA, pH 7.4) and allowed to equilibrate at 37° C. for 30 minutes. Experiments were initiated by adding 10 μg/ml Cy5.5-labelled FC5-Dalargin or Cy5.5-labelled FC5 to the apical chamber. Aliquots (100 μl) were collected from the opposite chamber at various time intervals (5, 15, 30, 60, 120 minutes) and replaced with fresh buffer. The amount of FC5-Dalargin transported across HCEC monolayers was determined by fluorescence in a fluorescence plate reader.

[2] = 0.86 mg/kg of Dalargin, intra-carotid, 30 min after injection
[3] = 1.72 mg/kg of Dalargin, intra-carotid, 30 min after injection

CN1CC[C@]23c4c5ccc(O)c4O[C@H]2[C@@H](O)C=C[C@H]3[C@H]1C5 [Morphine, morphine]
% of the maximal analgesic effect (observed with 10 mg/kg morphine) (male CD-1 mice; 3 mg/kg s.c.): approximately 50% | % MPE (30 min) (male CD-1 mice; 3 mg/kg sc, 30 min after injection): 56% | Tail flick latency (male CD-1 mice; 10 mg/kg morphine s.c., 30 min after injection, cut-off 10 sec): 10 s | % MPE (30 min) (male CD-1 mice; 10 mg/kg sc, 30 min after injection): 100% | Effect on CFA-injected paw withdrawal latency (male Wistar rats; 10 mg/kg subcutaneous, positive control): prompt increase in CFA-injected paw withdrawal latency to values of the contralateral, non-inflamed paw | Duration of the increase in paw withdrawal latency (male Wistar rats; 10 mg/kg subcutaneous, then slowly diminishing over 3 hours): 60 min

Dalargin-cysteamide-OH (Y[dA]GFLR; not fully specified (C-terminus)) [Dalargin with a cysteamide-OH residue used for conjugation]
Displacement of 3H-DAMGO (receptor binding competition) (opioid receptors): only slightly less potent than Dalargin | Time of return to basal levels after intra-cerebroventricular injection (male CD-1 mice; icv): 60 min | Analgesic effect after intra-cerebroventricular injection (male CD-1 mice; icv): reaching maximal latency of response | % of maximal effect (male Wistar rats; icv, 1.08 μg): 75% | % MPE (male Wistar rats; icv, 10.08 μg): 100% | Analgesic effect after intravenous injection (male Wistar rats): did not increase latency of withdrawal of the inflamed paw

FC5-Dalargin: FC5 sdAb conjugated via Sulfo-SMCC cross-linker to Dalargin-cysteamide
Displacement of 3H-DAMGO (receptor binding competition) (opioid receptors): only slightly less potent than Dalargin | % MPE (30 min) (male CD-1 mice; [2]): 63% | % MPE (30 min) (male CD-1 mice; 0.86 mg/kg of Dalargin, intra-carotid, 30 min after injection, listed as FC5-Dal): 63% | % MPE (30 min) (male CD-1 mice; [3]): 66% | % MPE (30 min) (male CD-1 mice; 1.72 mg/kg of Dalargin, intra-carotid, 30 min after injection, listed as FC5-Dal): 66% | Maximal analgesia, % of maximum effect (male CD-1 mice; icv, 30 min after injection): 40% | Persisting analgesia, % above basal levels (male CD-1 mice; icv, for up to 90 min): 10-15% | % MPE (male Wistar rats; i.v. 7 mg/kg, three injections at 0, 1, 2 h, 45 min-1 hour after the third injection): 100% | Analgesic effect after icv injection (male Wistar rats; icv, 74.4 μg): complete analgesia | Duration of analgesia after icv injection (male Wistar rats; icv, 74.4 μg): 120 min | Permeability co-efficients (Pe) [1]: 41.7 nm/s

Tyr-[D-Ala]-Gly-Phe-Leu-Arg (Y[dA]GFLR) [Dalargin]
% MPE (30 min) (male CD-1 mice; [2]): 19% | % MPE (30 min) (male CD-1 mice; [3]): 17% | Time of return to basal levels after intra-cerebroventricular injection (male CD-1 mice; icv): 60 min | Analgesic effect after intra-cerebroventricular injection (male CD-1 mice; icv): reaching maximal latency of response | Analgesic effect after intra-carotid injection (male CD-1 mice; intra-carotid, 0.86 and 1.72 mg/kg): No analgesic effect

B1: FC5: blood-brain barrier-transmigrating single domain antibody, SEQ ID NO:4, expressed with His5 and c-myc tags (protein)
VHH: EVQLQASGGGLVQAGGSLRLSCAASGFKITHYTMGWFRQAPGKEREFVSRITWGGDNTFYSNSVKGRFTISRDNAKNTVYLQMNSLKPEDTADYYCAAGSTSTATPLRVDYWGKGTQVTVSS
modifications: His5 and c-myc tags; FC5 sdAb
Displacement of 3H-DAMGO (receptor binding competition) (opioid receptors): did not displace | Analgesic effect after intravenous injection (male Wistar rats): Neither FC5 alone nor EG2-Dalargin construct induced any analgesic effect | Permeability co-efficients (Pe) [1]: 32.5 nm/s
